From ChEMBL document CHEMBL1128346, “Peptidyl alpha-ketoheterocyclic inhibitors of human neutrophil elastase. 2. Effect of varying the heterocyclic ring on in vitro potency” (J Med Chem, 1995)
pKi: −log10 of the molar value.

Key:
Neutrophil elastase [1] = biological target: T1, Neutrophil elastase (Homo sapiens, UniProt P08246); experiment: In vitro inhibitory activity against human neutrophil elastase (HNE) catalyzed hydrolysis of the synthetic substrate MeO-Suc-Ala- Ala-Pro-Val-pN
T1 sequence (P08246 whole entry): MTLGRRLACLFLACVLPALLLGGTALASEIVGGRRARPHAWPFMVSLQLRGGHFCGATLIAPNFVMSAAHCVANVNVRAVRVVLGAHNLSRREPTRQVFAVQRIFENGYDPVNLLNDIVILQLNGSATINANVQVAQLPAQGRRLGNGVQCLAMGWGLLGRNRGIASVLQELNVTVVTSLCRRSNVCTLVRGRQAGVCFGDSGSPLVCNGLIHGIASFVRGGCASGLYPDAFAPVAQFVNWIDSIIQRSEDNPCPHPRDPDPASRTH

Neutrophil elastase [2] = biological target: T1, Neutrophil elastase; experiment: In vitro inhibitory activity against human neutrophil elastase (HNE) catalyzed hydrolysis of the synthetic substrate MeO-Suc-Ala- Ala-Pro-Val-pN; 'b' means could not be accurately determined due to low solubility

| SMILES | pKi (Neutrophil elastase [1]) | Ki (Neutrophil elastase [2]) |
| --- | --- | --- |
| CC(C)[C@H](NC(=O)OCc1ccccc1)C(=O)N1CCC[C@H]1C(=O)N[C@H](C(=O)C(F)(F)C(=O)NCc1ccccc1)C(C)C | 9.40 | – |
| COC(=O)C(=O)[C@@H](NC(=O)[C@@H]1CCCN1C(=O)[C@@H](NC(=O)OCc1ccccc1)C(C)C)C(C)C | 9.22 | – |
| CCOc1cccnc1C(=O)[C@@H](NC(=O)[C@@H]1CCCN1C(=O)[C@@H](NC(=O)OCc1ccccc1)C(C)C)C(C)C | 4.06 | – |
| CC(C)[C@H](NC(=O)[C@@H]1CCCN1C(=O)[C@@H](NC(=O)OCc1ccccc1)C(C)C)C(=O)c1cc2ccccc2s1 | – | Could not be accurately determined due to low solubility |
| CC(C)[C@H](NC(=O)[C@@H]1CCCN1C(=O)[C@@H](NC(=O)OCc1ccccc1)C(C)C)C(=O)c1nnn(C)n1 | 7.31 | – |
| CCCCC(=O)C(=O)[C@@H](NC(=O)[C@@H]1CCCN1C(=O)[C@@H](NC(=O)OCc1ccccc1)C(C)C)C(C)C | 8.80 | – |
| CC(C)[C@H](NC(=O)[C@@H]1CCCN1C(=O)[C@@H](NC(=O)OCc1ccccc1)C(C)C)C(=O)c1nnnn1C | 6.39 | – |
| CC(C)[C@H](NC(=O)[C@@H]1CCCN1C(=O)[C@@H](NC(=O)OCc1ccccc1)C(C)C)C(=O)C1=N[C@@H](C)CO1 | 8.92 | – |
| CC(C)[C@H](NC(=O)[C@@H]1CCCN1C(=O)[C@@H](NC(=O)OCc1ccccc1)C(C)C)C(=O)c1ncoc1-c1ccccc1 | 6.48 | – |
| CC(C)[C@H](NC(=O)[C@@H]1CCCN1C(=O)[C@@H](NC(=O)OCc1ccccc1)C(C)C)C(=O)C(N)=O | 8.74 | – |
